Measured values from US9211249B2, “Methods and compositions for transdermal delivery of caffeine in the form of solutions or suspensions” (priority 2013, dated 2015).

Experiment: Solubility of caffeine in caffeine-containing compositions containing various helper esters
Settings: compared with caffeine in pure water; Tables 1-9

CC(C)OC(=O)[C@@H](N)Cc1c[nH]c2ccccc12 [tryptophan isopropyl ester]
solubility of caffeine in water with helper ester (statement in words): increased
